Data on three compounds can be found in patent US11083735B2, “Methods for treating sleep disorders, sleep disturbances, and related symptoms using aminosterol compositions” (Enterin, Inc., priority 2017, dated 2021).

A short description of data set [1]: Duration of the aminosterol-induced response after a single oral dose. The data set is classed as in vivo, human. The settings on record: single 200 mg oral dose. An excerpt: The invention is also based on the discovery of unexpected and unprecedented activity of orally or nasally administered squalamine and related aminosterols (e.g., aminosterol 1436). The activity relates to stimulating a sequence of events within the human GI tract with therapeutic value. With respect to this activity, the sequence of events stimulated by an aminosterol such as squalamine or aminosterol 1436 involves the induction of an intestinal secretory response followed by a period of “small intestinal quieting,” and the subsequent passage of a normally formed bowel movement. These events are best explained as a consequence of the stimulation of a heretofore unknown physiological gastrointestinal response, in this invention shown to be controlled or initiated by an effective oral dose of an aminosterol such as squalamine or the related aminosterol, 1436 (Aminosterol-Induced GI Response). The activity relates to stimulating the neural connections between the enteric nervous system and the brain with therapeutic value, which can thereby impact sleeping disorders, sleeping disturbances, or related symptoms, as described herein. With respect to this activity, the sequence of events stimulated by an aminosterol involves the entrainment of the circadian clock, the suprachiasmatic nucleus, and an improvement in the quality of sleep. […]

For another data set, the system named is dogs, and rodents. To be noted: administered orally; cited from earlier work.
The test system of another data set is isolated colons. The data set is described as follows: Isolated perfused colon, migrating muscular contractions (aged mouse; loperamide in young mouse). To be noted: loperamide introduced into the lumen of a young mouse. From the text:
Isolated colons were mounted in an apparatus that permits continuous perfusion through the lumen, and the monitoring of the velocity, frequency and pressure of migrating muscular contractions (MMCs). Similar to the experience in humans, aging in mice is associated with diminished colonic peristaltic activity.
In humans, opiates markedly diminish GI motility and suppress fluid secretion causing constipation. […] When loperamide is introduced into the lumen of a young mouse colonic peristalsis is inhibited. When squalamine is added in presence of continued loperamide perfusion, the dysmotility is overridden.

For data set [2] the following is noted: single and repeat intravenous administration; cited from earlier work.
The conditions of data set [3]: in vivo; cited from earlier work.

For `CC(C)[C@@H](CC[C@@H](C)[C@H]1CC[C@H]2[C@@H]3[C@H](O)C[C@H]4C[C@@H](NCCCNCCCCNCCCN)CC[C@]4(C)[C@H]3CC[C@]12C)OS(=O)(=O)O` [Aminosterol 1436], in data set [1], the “duration of the aminosterol-induced response” value is listed as “about 4 days”. Besides, the anorectic activity result in the data set with dogs, and rodents is given as “no anorectic activity”.
In the case of `CN(C)C(=O)C(CCN1CCC(O)(c2ccc(Cl)cc2)CC1)(c1ccccc1)c1ccccc1` [loperamide, reference compound], the colonic peristalsis result in the data set on isolated colons was “inhibited”.
As to `CC(C)[C@@H](CC[C@@H](C)[C@H]1CC[C@H]2[C@@H]3[C@H](O)C[C@H]4C[C@@H](NCCCNCCCCN)CC[C@]4(C)[C@H]3CC[C@]12C)OS(=O)(=O)O.C[C@H](O)C(=O)O.O` [squalamine lactate], the well tolerated dose result in data set [2] was “at least 300 mg/m^2”. Further, the oral bioavailability result in data set [3] was “poorly bioavailable orally”.
